# Test results published in ChEMBL document CHEMBL3885861, “Open TG-GATES”.
# Organism: Rattus norvegicus
# Assay: Open TG-GATES - Regimen: Daily Repeat
# Assay type: toxicity, organism-based, Sprague-Dawley
# Set-up: regimen Daily Repeat, gender Male, age 6 weeks
# Settings: in vivo, po, route gavage; for APTT / Bas / Eos / Fbg / Hb / Ht / Lym / MCH / MCHC / MCV / Mono / Neu / PT / Plat / RBC / Ret / WBC: tissue Blood; for KIDNEY_L / KIDNEY_R / KIDNEY_TOTAL: tissue Kidney; for LIVER: tissue Liver; for ALP / ALT / AST / BUN / CRE / DBIL / GLC / IP / K / LDH / Na / PL / RALB / TBIL / TC / TG / TP / gamma-GTP: tissue Plasma
# [1] = 100 mg/kg, 72 h, dose level Middle, time 3 day
# [2] = 100 mg/kg, […], dose level Middle, time 7 day
# [3] = 100 mg/kg, […], dose level Middle, time 14 day
# [4] = 100 mg/kg, […], dose level Middle, time 28 day
# [5] = 300 mg/kg, 72 h, dose level High, time 3 day
# [6] = 300 mg/kg, […], dose level High, time 7 day
# [7] = 300 mg/kg, […], dose level High, time 14 day
# [8] = 300 mg/kg, […], dose level High, time 28 day
compound,measurement,setting,value
Clc1ccccc1CN1CCc2sccc2C1 [TICLOPIDINE],TERMINAL_BW,[1],224.9 g
same,APTT,[1],21.3 s
same,Bas,[1],1%
same,Eos,[1],1%
same,Fbg,[1],224 mg/dL
same,Hb,[1],13.4 g/dL
same,Ht,[1],37.8%
same,Lym,[1],80.6%
same,MCH,[1],21.5 pg
same,MCHC,[1],35.5%
same,MCV,[1],60.4 fL
same,Mono,[1],2.6%
same,Neu,[1],14.6%
same,PT,[1],11.3 s
same,Plat,[1],125.6 x10_4/uL
same,RBC,[1],626.4 x10_4/ul
same,Ret,[1],5.6%
same,WBC,[1],100.7 x10_2/uL
same,KIDNEY_L,[1],1 g
same,KIDNEY_R,[1],1 g
same,KIDNEY_TOTAL,[1],1.9 g
same,LIVER,[1],11.8 g
same,ALP,[1],968 IU/L
same,ALT,[1],38.2 IU/L
same,AST,[1],65.8 IU/L
same,BUN,[1],15.4 mg/dL
same,CRE,[1],0.4 mg/dL
same,DBIL,[1],0.07 mg/dL
same,GLC,[1],195.6 mg/dL
same,IP,[1],7.3 mg/dL
same,K,[1],4 meq/L
same,LDH,[1],152.8 IU/L
same,Na,[1],142.2 meq/L
same,PL,[1],162.6 mg/dL
same,RALB,[1],3.3 g/dL
same,TBIL,[1],0.1 mg/dL
same,TC,[1],89.8 mg/dL
same,TG,[1],69.8 mg/dL
same,TP,[1],5.5 g/dL
same,gamma-GTP,[1],0.8 IU/L
same,TERMINAL_BW,[2],258 g
same,TERMINAL_BW,[3],306.1 g
same,TERMINAL_BW,[4],394.5 g
same,APTT,[2],22.3 s
same,Bas,[2],0.6%
same,Eos,[2],0.8%
same,Fbg,[2],227.4 mg/dL
same,Hb,[2],13.6 g/dL
same,Ht,[2],38.2%
same,MCH,[2],21.4 pg
same,MCHC,[2],35.5%
same,MCV,[2],60.4 fL
same,Mono,[2],2.6%
same,Neu,[2],13%
same,PT,[2],11.6 s
same,Plat,[2],123.7 x10_4/uL
same,RBC,[2],633.2 x10_4/ul
same,Ret,[2],5.4%
same,WBC,[2],117.5 x10_2/uL
same,APTT,[3],19.9 s
same,Bas,[3],0.8%
same,Eos,[3],0.8%
same,Fbg,[3],220.4 mg/dL
same,Hb,[3],14.5 g/dL
same,Ht,[3],40.6%
same,Lym,[3],80.6%
same,MCH,[3],21.3 pg
same,MCHC,[3],35.7%
same,MCV,[3],59.6 fL
same,Mono,[3],2.2%
same,Neu,[3],15.4%
same,PT,[3],11.8 s
same,Plat,[3],114.3 x10_4/uL
same,RBC,[3],681 x10_4/ul
same,Ret,[3],4.3%
same,WBC,[3],108.6 x10_2/uL
same,APTT,[4],18.7 s
same,Bas,[4],1%
same,Eos,[4],0.8%
same,Fbg,[4],219.8 mg/dL
same,Hb,[4],15.3 g/dL
same,Ht,[4],41.1%
same,Lym,[4],81.6%
same,MCH,[4],20 pg
same,MCHC,[4],37.4%
same,MCV,[4],53.4 fL
same,Mono,[4],2.2%
same,Neu,[4],13.6%
same,PT,[4],11.6 s
same,Plat,[4],114.7 x10_4/uL
same,RBC,[4],770 x10_4/ul
same,Ret,[4],3%
same,WBC,[4],136.4 x10_2/uL
same,KIDNEY_L,[2],1.2 g
same,KIDNEY_R,[2],1.2 g
same,KIDNEY_TOTAL,[2],2.3 g
same,KIDNEY_L,[3],1.2 g
same,KIDNEY_R,[3],1.2 g
same,KIDNEY_TOTAL,[3],2.5 g
same,KIDNEY_L,[4],1.5 g
same,KIDNEY_R,[4],1.5 g
same,KIDNEY_TOTAL,[4],3 g
same,LIVER,[2],13 g
same,LIVER,[3],14.1 g
same,LIVER,[4],17.9 g
same,ALP,[2],969.2 IU/L
same,ALT,[2],39.4 IU/L
same,AST,[2],73.2 IU/L
same,BUN,[2],14.8 mg/dL
same,CRE,[2],0.4 mg/dL
same,DBIL,[2],0.068 mg/dL
same,GLC,[2],192.6 mg/dL
same,IP,[2],7.2 mg/dL
same,K,[2],3.9 meq/L
same,LDH,[2],144.8 IU/L
same,Na,[2],142.4 meq/L
same,PL,[2],145.4 mg/dL
same,RALB,[2],3.5 g/dL
same,TBIL,[2],0.1 mg/dL
same,TC,[2],74.8 mg/dL
same,TG,[2],68.2 mg/dL
same,TP,[2],5.7 g/dL
same,gamma-GTP,[2],0.8 IU/L
same,ALP,[3],792.6 IU/L
same,ALT,[3],36.6 IU/L
same,AST,[3],68.8 IU/L
same,BUN,[3],15.8 mg/dL
same,CRE,[3],0.4 mg/dL
same,DBIL,[3],0.06 mg/dL
same,GLC,[3],205 mg/dL
same,IP,[3],7.5 mg/dL
same,K,[3],3.8 meq/L
same,LDH,[3],161.8 IU/L
same,Na,[3],143.4 meq/L
same,PL,[3],152.2 mg/dL
same,RALB,[3],3.4 g/dL
same,TBIL,[3],0.098 mg/dL
same,TC,[3],78.8 mg/dL
same,TG,[3],94.2 mg/dL
same,TP,[3],5.7 g/dL
same,gamma-GTP,[3],1 IU/L
same,ALP,[4],625.8 IU/L
same,ALT,[4],44 IU/L
same,AST,[4],71.6 IU/L
same,BUN,[4],17.6 mg/dL
same,CRE,[4],0.5 mg/dL
same,DBIL,[4],0.072 mg/dL
same,GLC,[4],202.8 mg/dL
same,IP,[4],7.5 mg/dL
same,K,[4],3.8 meq/L
same,LDH,[4],152.4 IU/L
same,Na,[4],142.2 meq/L
same,PL,[4],154.8 mg/dL
same,RALB,[4],3.6 g/dL
same,TBIL,[4],0.1 mg/dL
same,TC,[4],76.8 mg/dL
same,TG,[4],82.8 mg/dL
same,TP,[4],6.3 g/dL
same,gamma-GTP,[4],0.8 IU/L
same,TERMINAL_BW,[5],211.5 g
same,APTT,[5],25.4 s
same,Bas,[5],0.6%
same,Eos,[5],0.8%
same,Fbg,[5],212.6 mg/dL
same,Hb,[5],13.7 g/dL
same,Ht,[5],38.5%
same,Lym,[5],84%
same,MCH,[5],21.4 pg
same,MCHC,[5],35.5%
same,MCV,[5],60.1 fL
same,Mono,[5],2.6%
same,Neu,[5],11.2%
same,PT,[5],12.4 s
same,Plat,[5],149.4 x10_4/uL
same,RBC,[5],640.4 x10_4/ul
same,Ret,[5],3.5%
same,WBC,[5],84 x10_2/uL
same,KIDNEY_L,[5],1.1 g
same,KIDNEY_R,[5],1 g
same,KIDNEY_TOTAL,[5],2.1 g
same,LIVER,[5],13 g
same,ALP,[5],1140 IU/L
same,ALT,[5],40.2 IU/L
same,AST,[5],68.6 IU/L
same,BUN,[5],13.8 mg/dL
same,CRE,[5],0.4 mg/dL
same,DBIL,[5],0.084 mg/dL
same,GLC,[5],175.4 mg/dL
same,IP,[5],7 mg/dL
same,K,[5],4 meq/L
same,LDH,[5],134.6 IU/L
same,Na,[5],142 meq/L
same,PL,[5],163.2 mg/dL
same,RALB,[5],3.2 g/dL
same,TBIL,[5],0.1 mg/dL
same,TC,[5],93 mg/dL
same,TG,[5],55.6 mg/dL
same,TP,[5],5.2 g/dL
same,gamma-GTP,[5],1.6 IU/L
same,TERMINAL_BW,[6],243.3 g
same,TERMINAL_BW,[7],287.4 g
same,TERMINAL_BW,[8],349.5 g
same,APTT,[6],25.4 s
same,Bas,[6],0.4%
same,Eos,[6],1%
same,Fbg,[6],249.2 mg/dL
same,Hb,[6],13.3 g/dL
same,Ht,[6],37.1%
same,Lym,[6],73.6%
same,MCH,[6],20.6 pg
same,MCHC,[6],35.8%
same,MCV,[6],57.3 fL
same,Mono,[6],3%
same,Neu,[6],20.8%
same,PT,[6],12.5 s
same,Plat,[6],141.7 x10_4/uL
same,RBC,[6],646.4 x10_4/ul
same,Ret,[6],4.9%
same,WBC,[6],116.7 x10_2/uL
same,APTT,[7],27.3 s
same,Bas,[7],0.6%
same,Eos,[7],1%
same,Fbg,[7],229.6 mg/dL
same,Hb,[7],14.1 g/dL
same,Ht,[7],39.4%
same,Lym,[7],82.4%
same,MCH,[7],20.9 pg
same,MCHC,[7],35.9%
same,MCV,[7],58.1 fL
same,Mono,[7],2.2%
same,Neu,[7],12.8%
same,PT,[7],12.5 s
same,Plat,[7],123 x10_4/uL
same,RBC,[7],679 x10_4/ul
same,Ret,[7],4.4%
same,WBC,[7],118.3 x10_2/uL
same,APTT,[8],22.4 s
same,Bas,[8],0.8%
same,Eos,[8],1.4%
same,Fbg,[8],261.8 mg/dL
same,Hb,[8],14.8 g/dL
same,Ht,[8],39.8%
same,Lym,[8],77.4%
same,MCH,[8],19.7 pg
same,MCHC,[8],37.1%
same,MCV,[8],53.3 fL
same,Mono,[8],2.4%
same,Neu,[8],17.6%
same,PT,[8],11.8 s
same,Plat,[8],108.6 x10_4/uL
same,RBC,[8],747.8 x10_4/ul
same,Ret,[8],3.2%
same,WBC,[8],125.4 x10_2/uL
same,KIDNEY_L,[6],1.1 g
same,KIDNEY_R,[6],1.1 g
same,KIDNEY_TOTAL,[6],2.2 g
same,KIDNEY_L,[7],1.3 g
same,KIDNEY_R,[7],1.3 g
same,KIDNEY_TOTAL,[7],2.6 g
same,KIDNEY_L,[8],1.5 g
same,KIDNEY_R,[8],1.5 g
same,KIDNEY_TOTAL,[8],3.1 g
same,LIVER,[6],14.1 g
same,LIVER,[7],16.6 g
same,LIVER,[8],20 g
same,ALP,[6],768.8 IU/L
same,ALT,[6],49.8 IU/L
same,AST,[6],78 IU/L
same,BUN,[6],15.8 mg/dL
same,CRE,[6],0.4 mg/dL
same,DBIL,[6],0.084 mg/dL
same,GLC,[6],172.6 mg/dL
same,IP,[6],7.3 mg/dL
same,K,[6],4.1 meq/L
same,LDH,[6],186 IU/L
same,Na,[6],142.4 meq/L
same,PL,[6],222.6 mg/dL
same,RALB,[6],3.5 g/dL
same,TBIL,[6],0.1 mg/dL
same,TC,[6],126.8 mg/dL
same,TG,[6],67.4 mg/dL
same,TP,[6],6 g/dL
same,gamma-GTP,[6],1.8 IU/L
same,ALP,[7],721.2 IU/L
same,ALT,[7],35.2 IU/L
same,AST,[7],62.4 IU/L
same,BUN,[7],15.2 mg/dL
same,CRE,[7],0.4 mg/dL
same,DBIL,[7],0.08 mg/dL
same,GLC,[7],201.4 mg/dL
same,IP,[7],8.4 mg/dL
same,K,[7],3.9 meq/L
same,LDH,[7],141 IU/L
same,Na,[7],142.2 meq/L
same,PL,[7],182.8 mg/dL
same,RALB,[7],3.4 g/dL
same,TBIL,[7],0.1 mg/dL
same,TC,[7],99.2 mg/dL
same,TG,[7],53.6 mg/dL
same,TP,[7],6 g/dL
same,gamma-GTP,[7],2.4 IU/L
same,ALP,[8],578.4 IU/L
same,ALT,[8],47 IU/L
same,AST,[8],67.6 IU/L
same,BUN,[8],16.8 mg/dL
same,CRE,[8],0.5 mg/dL
same,DBIL,[8],0.086 mg/dL
same,GLC,[8],197 mg/dL
same,IP,[8],7.9 mg/dL
same,K,[8],4 meq/L
same,LDH,[8],196.6 IU/L
same,Na,[8],141.6 meq/L
same,PL,[8],206 mg/dL
same,RALB,[8],3.7 g/dL
same,TBIL,[8],0.1 mg/dL
same,TC,[8],116.4 mg/dL
same,TG,[8],62.4 mg/dL
same,TP,[8],6.5 g/dL
same,gamma-GTP,[8],2.6 IU/L
